# From US7553821B2, “Methods for selectively modulating survivin apoptosis pathways” (Yale University, priority 2000, dated 2009)
# System: HeLa cells
# Experiment: Nuclear morphology of apoptosis (DAPI) in transfected HeLa cells
# Type: cell-based
# From the text: HeLa cells transfected with GFP-vector (vector), GFP-survivin(T34A) (T34A), or GFP-caspase-9 (Met^1-Asp^330) (caspase-9), were scored morphologically for nuclear integrity by DAPI staining after 48-h. Arrows, nuclear fragmentation and chromatin condensation in GFP-expressing cells.
# The experimental procedures are the same as in A. Data are the meaνSEM of four independent experiments.
# HeLa cells were transfected with the various indicated combinations of GFP-constructs, with or without etoposide (10 μg/ml) or TNFα (10 ng/ml) plus cycloheximide (10 μg/ml), harvested after 48 h, and GFP-labeled cells were morphologically scored for nuclear fragmentation by DAPI staining, as described in FIG. 2B. DN, dominant negative. Data are the mea±SEM of four independent experiments.
# Transfection experiments. For transient transfection, HeLa cells in C-6 tissue culture plates (Costar, Cambridge, Mass.) at ˜60-70% confluency, were incubated in 1 ml of serum-free OptiMEM medium (Life Technologies, Gaithersburg, Md.) for 20 min, and transfected with 2.5 μg of the various plasmid cDNAs plus 9 μl Lipofectamine (Life Technologies). After a 5 h incubation at 37° C., the mixture was aspirated and substituted with complete growth medium for 48-72 h. To generate stable YUSAC-2 transfectants, a survivin(T34A) cDNA was inserted into the HindIII-SpeI sites of the pTet-splice vector (Dr. D. Schatz, Yale University School of Medicine), downstream of the regulatory sequences of the Tet-resistance operon (TetO). YUSAC-2 cells were transfected with 0.8 μg pTet-T34A, 0.8 μg of the transactivation/selection plasmid ptTA-Neo and 5 μl Lipofectamine in 1 ml of OptiMem. Forty-eight h after transfection, cells were re-plated at low density in 15×150 mm plates in growth medium containing 1.5 mg/ml Geneticin (G418, Life Technologies), 2 mM sodium hydroxide and 0.5 μg/ml Tet (Sigma, St. Louis, Mo.) (selection medium). After a 3-week culture, ninety-six individual clones were screened for differential growth in the presence or absence of Tet. […] Flow cytometry. HeLa cells transfected with the various GFP constructs in the presence or in the absence of the broad-spectrum caspase inhibitor Z-VAD-fmk (20 μM) were harvested after 48-h (non-adherent and adherent cells), washed in PBS, pH 7.0, and fixed in cold 70% ethanol for 30 min on ice. After washes in PBS, cells (10×10^6/ml) were stained with 25 μg/ml propidium iodide (Sigma), 0.05% Triton X-100 and 100 μg/ml RNAse A (Boehringer Mannheim, Indianapolis, Ind.) for 45 min at 22° C. Gated GFP-expressing cells were analyzed for DNA content by flow cytometry on a FACSort (Becton Dickinson, San Jose, Calif.) using a Cell Quest software. In other experiments, F5-C4 cells were synchronized at the G1/S boundary by culture with 5-mM thymidine for 16 h at 37° C., in the presence or in the absence of Tet. At the end of the incubation, cells were released from the thymidine block, and harvested at 3-h intervals for DNA content analysis by propidium iodide staining and flow cytometry, or, alternatively, for caspase-9 processing by Western blotting (see below). TUNEL staining. Internucleosomal DNA fragmentation of F5.C4 cells in the presence or in the absence of Tet was carried out by end-labeling with terminal deoxynucleotidyl transferase (TdT) and peroxidase-conjugated anti-digoxigenin antibody using the ApopTag kit (Intergen, Purchase, N.Y.), as described previously (Grossman et al., 1999). Immunoprecipitation and Western blotting. Asynchronously growing or synchronized HeLa cells were lysed in 200 μl of lysis buffer containing 50 mM Tris, pH 7.5, 1% NP-40, 0.25% DOC, 150 mM NaCl, 1 mM PMSF, 10 μg/ml aprotinin, 10 μg/ml leupeptin, 10 μg/ml pepstatin, 1 mM Na3VO4, 20 mM NaF, 0.2 mM EGTA, 1 mM EDTA, pH 8.0, for 30 min at 4° C. Insoluble material was removed by centrifugation at 14,000 rpm for 15 min, and two-hundred μg of protein lysate was pre-absorbed with 25 μl of a 50:50 Protein A Sepharose slurry (Pharmacia) for 3 h at 4° C. with constant agitation. […]
substance,measurement,setting,value
"survivin(T34A): dominant-negative, non-phosphorylatable survivin mutant with Thr34→Ala substitution, expressed from transfected cDNA (also HA- or GFP-tagged)","spontaneous chromatin condensation and DNA fragmentation, GFP-expressing cells","GFP fusion, 48 h, no exogenous apoptotic stimuli",~80%
same,ability to induce spontaneous apoptosis upon transient transfection,survivin BIR domain mutants,particularly effective
